Values quoted from earlier work as cited in patent US20240158516A1, “METHODS FOR THE TREATMENT OF THYROID EYE DISEASE” (Horizon Therapeutics Ireland DAC, priority 2021, published 2024).
Where two headings read alike, the source gives them in different places.

Assays:
[1] = cited from earlier work
[2] = system: tumor; conditions: in vivo; cited from earlier work
[3] = system: patients with GO (TED); conditions: vs. 0.15 mm in the placebo group; cited from earlier work
[4] = biological target: T1, IGF-IR (Homo sapiens, UniProt P08069); conditions: cited from earlier work
[5] = biological target: T1, IGF-IR; conditions: cited from earlier work; remark: listed apart in the source
[6] = biological target: IGF-1 R (Homo sapiens, UniProt P08069); conditions: cited from earlier work
[7] = cited from earlier work; remark: listed apart in the source
[8] = system: patients with moderate-to-severe active TED; conditions: cited from earlier work

T1 sequence (P08069 31-1367): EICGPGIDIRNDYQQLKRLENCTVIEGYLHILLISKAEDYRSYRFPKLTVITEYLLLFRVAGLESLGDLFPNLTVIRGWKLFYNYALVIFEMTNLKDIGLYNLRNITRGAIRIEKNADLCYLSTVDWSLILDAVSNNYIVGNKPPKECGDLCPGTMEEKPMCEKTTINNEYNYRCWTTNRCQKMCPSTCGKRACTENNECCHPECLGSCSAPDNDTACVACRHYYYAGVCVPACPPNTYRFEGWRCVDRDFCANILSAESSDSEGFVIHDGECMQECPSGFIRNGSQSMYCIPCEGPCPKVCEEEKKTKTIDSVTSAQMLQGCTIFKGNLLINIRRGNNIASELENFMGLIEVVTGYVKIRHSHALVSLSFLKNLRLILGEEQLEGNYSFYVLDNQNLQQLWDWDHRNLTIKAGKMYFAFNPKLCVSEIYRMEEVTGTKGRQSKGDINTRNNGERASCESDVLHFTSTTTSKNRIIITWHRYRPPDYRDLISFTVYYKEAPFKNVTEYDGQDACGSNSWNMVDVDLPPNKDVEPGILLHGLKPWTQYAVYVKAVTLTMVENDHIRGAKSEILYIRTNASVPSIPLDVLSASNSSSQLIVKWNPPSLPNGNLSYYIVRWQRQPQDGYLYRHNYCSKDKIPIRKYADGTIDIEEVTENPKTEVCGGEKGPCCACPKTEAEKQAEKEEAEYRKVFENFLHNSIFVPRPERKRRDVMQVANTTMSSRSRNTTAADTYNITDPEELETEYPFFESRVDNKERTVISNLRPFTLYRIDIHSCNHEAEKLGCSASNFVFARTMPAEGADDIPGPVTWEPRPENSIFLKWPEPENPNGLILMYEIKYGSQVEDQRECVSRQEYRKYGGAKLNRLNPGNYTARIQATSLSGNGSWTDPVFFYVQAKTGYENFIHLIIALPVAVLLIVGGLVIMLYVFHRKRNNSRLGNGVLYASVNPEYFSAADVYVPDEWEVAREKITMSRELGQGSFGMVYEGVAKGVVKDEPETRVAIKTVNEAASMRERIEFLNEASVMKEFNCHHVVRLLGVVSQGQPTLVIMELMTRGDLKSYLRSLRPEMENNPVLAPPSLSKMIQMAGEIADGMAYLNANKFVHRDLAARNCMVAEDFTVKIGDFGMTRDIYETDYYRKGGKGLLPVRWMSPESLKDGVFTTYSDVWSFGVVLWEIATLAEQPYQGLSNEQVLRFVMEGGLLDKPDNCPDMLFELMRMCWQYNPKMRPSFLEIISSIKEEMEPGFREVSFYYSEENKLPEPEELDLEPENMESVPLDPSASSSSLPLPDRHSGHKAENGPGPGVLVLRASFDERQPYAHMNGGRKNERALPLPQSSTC
Chain of IGF-1 R (P08069 31-1367): as above

Dalotuzumab: IGF-1R inhibitor antibody; HC SEQ ID NO:7, LC SEQ ID NO:8
T1/2 ([1]; in vivo, iv): IV;5 days

N#CCc1cnc(-c2ccc3ccccc3n2)n1-c1ccnc(NC2CCCNC2)n1 (stereo not shown) [BI893923]
anti-tumor efficacy [2]: anti-tumor efficacy
tolerability [2]: good

teprotumumab: fully human IGF-IR-inhibitory monoclonal antibody approved for TED; VH SEQ ID NO:90, VL SEQ ID NO:91
exophthalmos decreased by an average of [3]: 2.46 mm
T1/2 ([1]; IV): IV; 8 days

Nc1ncnc2c1c(-c1ccc3[nH]c(Cc4ccccc4Cl)nc3c1)nn2[C@H]1CC[C@H](N2CCOCC2)CC1 [Example A-928605]
inhibition of IGF-IR on the purified enzyme [4]: potent inhibitor
inhibition of intracellular IGF-IR phosphorylation [5]: potent inhibitor

Cixutumumab: IGF-1R inhibitor antibody; HC SEQ ID NO:55, LC SEQ ID NO:56
T1/2 ([1]; IV): IV; 5 days

COc1cc(N2CCC(N)CC2)ccc1Nc1ncc(Cl)c(-c2c[nH]c3ccccc23)n1 [AZD3463]
inhibition of IGF-1 R [6]: potent ALK/IGF-1 R inhibitor

C[C@]1(O)C[C@@H](c2nc(-c3ccc4ccc(-c5ccccc5)nc4c3)c3c(N)nccn32)C1 [Linsitinib]
T1/2 ([1]; oral): oral; 2-4 hrs

COCCN1CCN(CCn2ccc(Nc3ncc4c(n3)[C@@H](C)Cc3nn(C)c(-c5ccccc5)c3-4)n2)CC1 [BI885578]
in vivo half-life ([7]; as a result of rapid metabolic clearance): short
intestinal absorption ([7]; in vivo): rapid
metabolic clearance ([7]; in vivo): rapid

CN1CCC(Nc2cc(Cl)cc3c(S(=O)(=O)N4CCO[C@H](COc5ccccc5)C4)c(C(N)=O)[nH]c23)CC1 [PL-225B]
T1/2 ([1]; oral): Oral; 21d
inhibition of IGF-1 R [6]: selectively inhibits IGF-1 R

rituximab: a CD20+ B cell-depleting agent
reduction in proptosis compared with the ivGC results ([8]; compared with 0.6 mm mean reduction under ivGCs): not different
effects of rituximab versus placebo ([8]; first trial, 2015 monocenter RCT): negative
effects of rituximab versus ivGCs ([8]; second trial, 2015 monocenter RCT): positive

B1: Figitumumab: IGF-1R inhibitor antibody; HC SEQ ID NO:39, LC SEQ ID NO:40 (antibody)
heavy: EVQLLESGGGLVQPGGSLRLSCTASGFTFSSYAMNWVRQAPGKGLEWVSAISGSGGTTFYADSVKGRFTISRDNSRTTLYLQMNSLRAEDTAVYYCAKDLGWSDSYYYYYGMDVWGQGTTVTVSSASTKGPSVFPLAPCSRSTSESTAALGCLVKDYFPEPVTVSWNSGALTSGVHTFPAVLQSSGLYSLSSVVTVPSSNFGTQTYTCNVDHKPSNTKVDKTVERKCCVECPPCPAPPVAGPSVFLFPPKPKDTLMISRTPEVTCVVVDVSHEDPEVQFNWYVDGVEVHNAKTKPREEQFNSTFRVVSVLTVVHQDWLNGKEYKCKVSNKGLPAPIEKTISKTKGQPREPQVYTLPPSREEMTKNQVSLTCLVKGFYPSDIAVEWESNGQPENNYKTTPPMLDSDGSFFLYSKLTVDKSRWQQGNVFSCSVMHEALHNHYTQKSLSLSPGK
light: DIQMTQFPSSLSASVGDRVTITCRASQGIRNDLGWYQQKPGKAPKRLIYAASRLHRGVPSRFSGSGSGTEFTLTISSLQPEDFATYYCLQHNSYPCSFGQGTKLEIKRTVAAPSVFIFPPSDEQLKSGTASVVCLLNNFYPREAKVQWKVDNALQSGNSQESVTEQDSKDSTYSLSSTLTLSKADYEKHKVYACEVTHQGLSSPVTKSFNRGEC
modifications: Figitumumab Heavy Chain (HC); Figitumumab Light Chain (LC)
T1/2 ([1]; IV): IV; 20 days
